The source made the active and inactive calls.
Columns and labels:
[1] = tested on: Enterococcus faecium; assay: Antimicrobial activity against vancomycin-resistant Enterococcus faecium ATCC 700221 by broth liquid microdilution method; type: functional
[2] = tested on: Enterococcus faecalis; assay: microbe, parasite or virus in culture; details: ATCC 51299
[3] = tested on: Staphylococcus aureus; assay: Antimicrobial activity against vancomycin-resistant Staphylococcus aureus 10 by broth liquid microdilution method; type: functional
[4] = tested on: Staphylococcus aureus; assay: microbe, parasite or virus in culture; details: NRS384
Description: Antimicrobial activity against methicillin-resistant Staphylococcus aureus NRS384 by broth liquid microdilution method

[5] = tested on: Staphylococcus aureus; assay: microbe, parasite or virus in culture; details: NRS 107
Description: Antimicrobial activity against methicillin-sensitive Staphylococcus aureus NRS 107 by broth liquid microdilution method

[6] = tested on: Staphylococcus epidermidis; assay: Antimicrobial activity against methicillin-resistant Staphylococcus epidermidis NRS101 by broth liquid microdilution method; type: functional
[7] = tested on: Listeria monocytogenes; assay: Antimicrobial activity against Listeria monocytogenes ATCC 19111 by broth liquid microdilution method; type: functional
[8] = tested on: Staphylococcus aureus; assay: Antimicrobial activity against vancomycin-resistant Staphylococcus aureus 12 by broth liquid microdilution method; type: functional
[9] = tested on: Streptococcus pneumoniae; assay: Antimicrobial activity against methicillin-resistant Streptococcus pneumoniae ATCC 700677 by broth liquid microdilution method; type: functional
[10] = tested on: Staphylococcus aureus; assay: microbe, parasite or virus in culture; details: NRS119
Description: Antimicrobial activity against methicillin-resistant Staphylococcus aureus NRS119 by broth liquid microdilution method

[11] = tested on: Staphylococcus aureus; assay: microbe, parasite or virus in culture; details: ATCC 6538
Description: Antimicrobial activity against methicillin-sensitive Staphylococcus aureus ATCC 6538 by broth liquid microdilution method

[12] = tested on: Staphylococcus aureus; assay: microbe, parasite or virus in culture; details: NRS 385
Description: Antimicrobial activity against methicillin-resistant Staphylococcus aureus NRS 385 by broth liquid microdilution method

[13] = tested on: Staphylococcus aureus; assay: microbe, parasite or virus in culture; details: NRS123
Description: Antimicrobial activity against methicillin-resistant Staphylococcus aureus NRS123 by broth liquid microdilution method

[14] = tested on: Staphylococcus aureus; assay: microbe, parasite or virus in culture; details: NRS 386
Description: Antimicrobial activity against methicillin-resistant Staphylococcus aureus NRS 386 by broth liquid microdilution method

[15] = tested on: Streptococcus pneumoniae; assay: Antimicrobial activity against cephalosporin-resistant Streptococcus pneumoniae ATCC 51916 by broth liquid microdilution method; type: functional
[16] = Tmax in Sprague-Dawley rat at 50 mg/kg, po via gavage administered as a single dose measured upto 24 hrs by LC/MS/MS analysis; type: ADME, organism-based; details: in vivo
[17] = AUC in Sprague-Dawley rat at 50 mg/kg, po via gavage administered as a single dose measured upto 24 hrs by LC/MS/MS analysis; type: ADME, organism-based; parameters: time < 24 hr, dose 50 mg/kg, route oral; details: in vivo
[18] = Half life in Sprague-Dawley rat at 50 mg/kg, po via gavage administered as a single dose measured upto 24 hrs by LC/MS/MS analysis; type: ADME, organism-based; details: in vivo
[19] = Cmax in Sprague-Dawley rat at 50 mg/kg, po via gavage administered as a single dose measured upto 24 hrs by LC/MS/MS analysis; type: ADME, organism-based; parameters: dose 50 mg/kg, route oral; details: in vivo
[20] = tested on: Staphylococcus aureus; assay: Bactericidal activity against methicillin-resistant Staphylococcus aureus USA400 assessed as reduction in number of colony forming units at 5 times MIC incubated for 12 hrs by aliquots transfer to tryptic soy agar and grown for 18 to 20 hrs by Time-kill assay relative to control; type: functional; parameters: scale not given: the % may be the effect or the level left
[21] = tested on: Staphylococcus aureus; assay: Antibiofilm activity against methicillin-resistant Staphylococcus aureus USA300 at 2 times MIC incubated for 24 hrs by crystal violet staining based assay relative to control; type: functional
[22] = tested on: Escherichia coli; assay: Antimicrobial activity against Escherichia coli BW25113 by broth liquid microdilution method; type: functional
[23] = tested on: Staphylococcus aureus; assay: Antibiofilm activity against methicillin-resistant Staphylococcus aureus USA300 at 4 times MIC incubated for 24 hrs by crystal violet staining based assay relative to control; type: functional
[24] = tested on: J774; assay: Cytotoxicity against mouse J774 cells assessed as reduction in cell viability at 4 to 8 ug/ml incubated for 24 hrs by MTS assay; type: cell-based; details: j774, 24 h
[25] = tested on: Staphylococcus aureus; assay: Antimicrobial activity against methicillin-resistant Staphylococcus aureus USA400 infected in mouse J774 cells assessed as reduction in […] bacterial count at 2 times MIC incubated for 24 hrs relative to control; type: functional; parameters: scale not given: the % may be the effect or the level left
[26] = Clearance in Sprague-Dawley rat at 50 mg/kg, po via gavage administered as a single dose measured upto 24 hrs by LC/MS/MS analysis; type: ADME, organism-based; details: in vivo
[27] = Volume of distribution in Sprague-Dawley rat at 50 mg/kg, po via gavage administered as a single dose measured upto 24 hrs by LC/MS/MS analysis; type: ADME, organism-based; details: in vivo
[28] = tested on: Staphylococcus aureus; assay: Bactericidal activity against methicillin-resistant Staphylococcus aureus USA400 assessed as 3 log reduction in number of colony forming units at 5 times MIC incubated for 10 hrs by aliquots transfer to tryptic soy agar and grown for 18 to 20 hrs by Time-kill assay; type: functional, organism-based
[29] = tested on: Escherichia coli; assay: Antimicrobial activity against Escherichia coli JW55031 harboring deltatolC mutant by broth liquid microdilution method; type: functional
[30] = Aqueous solubility of compound in pH 6.8 phosphate buffer; type: physicochemical
[31] = tested on: Staphylococcus aureus; assay: Antimicrobial activity against methicillin-resistant Staphylococcus aureus USA400 infected in mouse J774 cells assessed as reduction in […] bacterial count at 4 times MIC incubated for 24 hrs relative to control; type: functional; parameters: scale not given: the % may be the effect or the level left
[32] = tested on: Staphylococcus aureus; assay: Antibiofilm activity against methicillin-resistant Staphylococcus aureus USA300 incubated for 24 hrs by crystal violet staining based assay; type: functional, organism-based
[33] = tested on: Caco-2; assay: Cytotoxicity against human Caco2 cells assessed as reduction in cell viability at 64 ug/ml by MTS assay relative to control
[34] = tested on: Staphylococcus aureus; assay: Bactericidal activity against methicillin-resistant Staphylococcus aureus USA400 assessed as reduction in number of colony forming units at 5 times MIC incubated for 24 hrs by aliquots transfer to tryptic soy agar and grown for 18 to 20 hrs by Time-kill assay; type: functional, organism-based
[35] = tested on: Staphylococcus aureus; assay: Bactericidal activity against methicillin-resistant Staphylococcus aureus USA400 assessed as 3 log reduction in number of colony forming units at 5 times MIC incubated for 10 hrs by aliquots transfer to tryptic soy agar and grown for 18 to 20 hrs by Time-kill assay relative to control; type: functional; parameters: scale not given: the % may be the effect or the level left

CC(=O)NC[C@H]1CN(c2ccc(N3CCOCC3)c(F)c2)C(=O)O1 [LINEZOLID]
64 µg/mL: MBC [5] | MBC [8] | MIC [10] | MBC [14]
1 µg/mL: MIC [1] | MIC [3] | MIC [4] | MIC [5] | MIC [6] | MIC [8] | MIC [11] | MIC [12] | MIC [13]
> 64 µg/mL: MBC [3] | MBC [10]
≤ 0.5 µg/mL: MIC [7]
16 µg/mL: MBC [1] | MBC [2] | MBC [6] | MBC [7] | MBC [9] | MBC [11]
32 µg/mL: MBC [4] | MBC [12] | MBC [13] | MBC [15]

C/C(=N\NC(=N)N)c1sc(-c2ccc(C#CCCN3CCC3)cc2)nc1C
1 h: Tmax [16]
1.29 L: Vd [27]
8 µg/mL: MBC [1] | MBC [3] | MBC [5] | MBC [7] | MBC [9] | MBC [10] | MBC [11] | MBC [14] | MBC [15]
98%: Activity [25]
16 µg/mL: MBC [2] | MBC [8]
active: Activity [28] | Activity [32] Dose-dependent effect
15600 ng/mL: Cmax [19]
4 µg/mL: MIC [2] | MBC [4] | MBC [6] | MIC [7] | MIC [8] | MBC [12] | MIC [12] | MBC [13]
2 µg/mL: MIC [1] | MIC [3] | MIC [4] | MIC [5] | MIC [9] | MIC [10] | MIC [11] | MIC [13] | MIC [14] | MIC [15]
Non-Toxic: Activity [24]
99.7%: Activity [31]
> 64 µg/mL: MIC [22]
162 µg·h/mL: AUC at 24 h [17]
41%: Activity [23]
31%: Activity [21]
2.9 h: half-life [18]
5.17 mL/min: CL/F [26]
32 µg/mL: MIC [29]
100%: Activity [20]
500 µM: solubility [30]
1 µg/mL: MIC [6]

C/C(=N\NC(=N)N)c1sc(-c2ccc(C#CCCn3ccnc3)cc2)nc1C
99.9%: Activity [35]
8 µg/mL: MIC [2] | MBC [3] | MBC [5] | MIC [7] | MIC [10] | MBC [13] | MIC [15]
> 64 µg/mL: MIC [22]
32 µg/mL: MBC [2] | MBC [7] | MBC [10]
81%: Activity [23]
70%: Activity [33]
active: Activity [34] | Activity [32] Dose-dependent effect
16 µg/mL: MBC [1] | MBC [4] | MBC [6] | MBC [8] | MBC [9] | MIC [29] | MBC [11] | MBC [12] | MBC [14] | MBC [15]
4 µg/mL: MIC [1] | MIC [3] | MIC [4] | MIC [5] | MIC [6] | MIC [8] | MIC [9] | MIC [11] | MIC [12] | MIC [13] | MIC [14]
65%: Activity [21]
